In patent publication US8389530B2, “Substituted quinazoline compounds” (Fovea Pharmaceuticals, priority 2008, dated 2013):
Converted amounts (≈) assume the structure as drawn. Like-named read-outs stand apart in the source and are kept apart here.

How the values were obtained:
[1] = Colour of compounds; type: physicochemical
[2] = Solubility in aqueous buffer at pH 5 (HPLC/UV); type: physicochemical; settings: acetic acid/KOH buffer pH 5, stirred 24 h at room temperature; for solubility at 24 h: acetic acid/KOH buffer, pH 5, aqueous buffer, thermodynamic from solid
Experimental: Solubility of Compounds was determined in aqueous medium using the following procedure.
Two mg of Compound was added to 200 μl buffer (acetic acid/KOH) solution at pH 5. Solution was then stirred for 24 h at room temperature and then centrifuged 10 min at 16,000 rpm. Corresponding supernatants were analyzed by HPLC and UV detection. Calculation of a given Compound concentration was performed by reporting area under the experimental slope onto a calibration slope obtained separately using DMSO-solubilised Compound at different concentrations.

[3] = test system: Src tyrosine kinase; settings: in vivo; cited from earlier work
[4] = test system: VEGF-induced blood retinal barrier breakdown; assay: Inhibition of vascular leakage in a rabbit model of VEGF-induced blood-retinal barrier breakdown; type: in vivo; settings: topical 3% (30 mg/ml) 4 times daily for four days, 48 h after intravitreal VEGF, ocular fluorophotometry
Experimental: Intravitreal injection of VEGF in the rabbit eye produces massive retinal vascular leakage (Edelman and Lutz, 2003, Invest. Ophthalmol. Vis. Sci. 2003; 44:ARVO e-abstract No. 328). Based on said animal model, we investigated the efficacy of topical administration of compound 7 of the invention in reducing the retinal leakage in a VEGF-induced blood retinal barrier breakdown in the rabbit. During four days, 3% test compound 7 (30 mg/ml, 10% PEG 400, 87% labrafil) or control items without compound of the Invention were administered 4 times daily by topical administration (50 μl) in the right eye of five rabbits. On day two, animals received a single intravitreal injection of 50 μl (500 ng) recombinant human VEGF 165 (RD systems) into right eye. Forty-seven hours after the VEGF challenge (day four), fluorescein was injected via the marginal ear vein and circulate during one hour. Breakdown of the blood-retinal barrier was evaluated 48 h after VEGF challenge by measuring fluorescein contents into the vitreoretinal compartment using non-invasive scanning ocular fluorophotometry.

[5] = test system: VEGF-induced blood retinal barrier breakdown; assay: Inhibition of vascular leakage in a rat model of VEGF-induced blood-retinal barrier breakdown; type: in vivo; settings: topical 0.51% (5.1 mg/ml) six times over 27 h after intravitreal VEGF, Evans blue
Experimental: We investigated the efficacy of topical administration of compound II of the invention in reducing the retinal leakage in a VEGF-induced blood retinal barrier breakdown in the rat.
Rats were treated by a single intravitreal injection of 5 μl (100 ng) recombinant human VEGF164 (RD Systems) into each eye.
During twenty-seven hours following VEGF injection, 0.51% test compound II of the Invention (5.1 mg/ml buffer pH 5 with 30% cyclodextrin) and control without compound of the Invention were administered six times by topical administration (10 μl) in eyes of sixteen rats.
Twenty-seven hours later after the VEGF challenge, Evans blue dye (45 mg/kg) was injected intravenously and the dye was allowed to circulate during two hours.
Then, each rat was infused with 0.05M citrate buffer pH 3.5 (37° C.) for 2 minutes to allow clearance of the dye. Immediately after said perfusion, both eyes were enucleated and Evans blue dye was extracted by incubating each retina in formamide (Qaum et al Invest. Ophthalmol. Vis. Sci. 2001, Vol 42, No 10). Afterward, the absorbance was measured with a spectrophotometer at 620 nm.
Breakdown of blood-retinal barrier was proportional to the concentration of Evans blue in the retina normalized by Evans blue concentrations in the plasma.

| Structure (SMILES) | Colour [1] | Solubility (pH 5) in % [2] [%] | solubility at 24 h [2] [µg/mL] | other results |
| --- | --- | --- | --- | --- |
| Cc1cccc(C)c1-c1ccc2nc(Nc3ccc(N4CCN(CCN5CCCC5)C4=O)cc3)ncc2c1 [9 Chlorhydrate, 1-{4-[6-(2,6-Dimethyl-phenyl)-quinazolin-2-ylamino]-phenyl}-3-(2-pyrrolidin-1-yl-ethyl)-imidazolidin-2-one] | Pale yellow | 0.35 | 3500 |  |
| CN(C)[C@@H]1CCN(C(=O)COc2ccc(Nc3ncc4cc(-c5cc(O)ccc5Cl)ccc4n3)cc2)C1 [13 base form] | Pale green | 0.03 |  | Solubility (pH 5) in mg/ml [2]: 0.29 mg/ml |
| Cc1ccc(-c2nn(C(C)(C)C)c3ncnc(N)c23)cc1 [PP1] |  |  |  | breakdown of the brain-blood barrier (BBB) [3]: decrease breakdown of the brain-blood barrier (BBB); expression of VEGF [3]: reduce expression of VEGF; oedema [3]: decrease oedema |
| Cc1cccc(C)c1-c1ccc2nc(Nc3ccc(OCCN4CCC[C@@H]4C(=O)O)cc3)ncc2c1 [compound 8, (R)-1-(2-{4-[6-(2,6-Dimethyl-phenyl)-quinazolin-2-ylamino]-phenoxy}-ethyl)-pyrrolidine-2-carboxylic acid] |  |  |  | Colour ([1]; listed as 8 base form): Orange; Solubility (pH 5) in % ([2]; listed as 8 base form): 0.04%; Solubility (pH 5) in mg/ml ([2]; listed as 8 base form): 0.4 mg/ml |
| Cc1cccc(C)c1-c1ccc2nc(Nc3ccc(N4CCN(C(=O)c5ccncc5)CC4)cc3)ncc2c1 [compound 11, (4-{4-[6-(2,6-Dimethyl-phenyl)-quinazolin-2-ylamino]-phenyl}-piperazin-1-yl)-pyridin-4-yl-methanone] |  |  |  | reduction of vascular leakage compared to control [5]: 56% |
| Cc1cccc(C)c1-c1ccc2nc(Nc3ccc(OCC(=O)N4CC[C@@H](N(C)C)C4)cc3)ncc2c1 [compound 14, 1-((R)-3-Dimethylamino-pyrrolidin-1-yl)-2-{4-[6-(2,6-dimethyl-phenyl)-quinazolin-2-ylamino]-phenoxy}-ethanone] | Pale yellow | 0.01 | 140 (≈ 282 µM) |  |
| Cc1cccc(C)c1-c1ccc2nc(Nc3ccc(N4CCNCC4)cc3)ncc2c1 [compound 17, [6-(2,6-Dimethyl-phenyl)-quinazolin-2-yl]-(4-piperazin-1-yl-phenyl)-amine] | brown | 0.63 | 6300 (≈ 15400 µM) |  |

Further lines, with some results ahead:

| Colour [1] | Solubility (pH 5) in % [2] [%] | solubility at 24 h [2] [µg/mL] | Structure (SMILES) | other results |
| --- | --- | --- | --- | --- |
| Pale yellow | 0.09 | 900 | Cc1cccc(C)c1-c1ccc2nc(Nc3ccc(OCCN4CCCC4)cc3)ncc2c1 [6 Chlorhydrate, [6-(2,6-Dimethyl-phenyl)-quinazolin-2-yl]-[4-(2-pyrrolidin-1-yl-ethoxy)-phenyl]-amine] |  |
| Yellow | 0.03 | 340 (≈ 738 µM) | Oc1ccc(Cl)c(-c2ccc3nc(Nc4ccc(OCCN5CCCC5)cc4)ncc3c2)c1 [7 base form, 4-Chloro-3-{2-[4-(2-pyrrolidin-1-yl-ethoxy)-phenylamino]-quinazolin-6-yl}-phenol] |  |
| Pale yellow | 1 |  | Cc1cccc(C)c1-c1ccc2nc(Nc3ccc(OCCN4CCC[C@@H]4C(=O)O)cc3)ncc2c1 [8 Chlorhydrate, (R)-1-(2-{4-[6-(2,6-Dimethyl-phenyl)-quinazolin-2-ylamino]-phenoxy}-ethyl)-pyrrolidine-2-carboxylic acid] | Solubility (pH 5) in mg/ml [2]: 10 mg/ml |
| Pale yellow | 0.45 | 4500 | O=C1N(CCN2CCCC2)CCN1c1ccc(Nc2ncc3cc(-c4cc(O)ccc4Cl)ccc3n2)cc1 [12 Chlorhydrate, 1-{4-[6-(2-Chloro-5-hydroxy-phenyl)-quinazolin-2-ylamino]-phenyl}-3-(2-pyrrolidin-1-yl-ethyl)-imidazolidin-2-one] |  |
| Pale yellow | 0.67 | 6700 | Cc1cc(-c2cc(O)ccc2Cl)cc2cnc(Nc3ccc(OCCN4CCCC4)cc3)nc12.Cl [Compound 18, 1-(2-{4-[6-(2-Chloro-5-hydroxy-phenyl)-8-methyl-quinazolin-2-ylamino]-phenoxy}-ethyl)-pyrrolidinium; chloride] |  |
| Pale yellow | 0.19 | 1900 | Cl.Oc1ccc(Cl)c(-c2ccc3nc(Nc4ccc(OCCN5CCCC5)cc4)ncc3c2)c1 [compound 7, 4-Chloro-3-{2-[4-(2-pyrrolidin-1-yl-ethoxy)-phenylamino]-quinazolin-6-yl}-phenol; hydrochloride] | reduction of vascular leakage compared to control [4]: 41% |
| Pale yellow | 0.05 | 500 (≈ 1020 µM) | Oc1ccc(Cl)c(-c2ccc3nc(Nc4ccc(OCCN5CCCCCC5)cc4)ncc3c2)c1 [compound 16, 3-{2-[4-(2-Azepan-1-yl-ethoxy)-phenylamino]-quinazolin-6-yl}-4-chloro-phenol] |  |
